From patent US8975411B2, “Therapeutic agent for neurological diseases” (Neugen Pharma Inc., priority 2010, dated 2015)
Values after ≈ are worked out from the molar mass of the structure shown.

Assays:
[1] = Evaluation of blood-brain barrier permeability (concentration in brain after oral administration, HPLC); type: in vivo; settings: male C57BL/6N mice, 100 mg/kg once orally, fasting
Description: For evaluation of blood-brain barrier permeability, pharmacokinetics (the concentration in brain) in mice was analyzed. In the test, male C57BL/6N mice (at 8 weeks of age) were used. Each compound was suspended in 0.5% sodium carboxymethylcellulose (CMC-Na). The dosage amount was 100 mg/kg per body weight of each mouse. Each compound was administered once orally under fasting conditions. At the time points of 30 minutes and one hour after administration, blood was collected from the heart of each mouse. Subsequently, perfusion was performed using physiological saline containing 10% heparin and thereafter the brain was removed. Serum was obtained by centrifuging the blood sample and brain was lyophilized with liquid nitrogen, both of which were stored at −80° C. until use.
Next, as a pre-treatment for HPLC analysis, deproteinization treatment was performed. Acetonitrile was added to the brain sample and homogenization treatment was performed to grind the brain. The resultant sample was centrifuged (10,000×g, 10 min, 4° C.) and the supernatant was collected, allowed to stand still at −80° C. for 10 minutes, thawed and then centrifuged again (10,000×g, 10 min, 4° C.). The obtained supernatant was dried under vacuum. The vacuum-dried sample was dissolved in a 10 mM phosphate buffer (pH7.0) containing 30-50% acetonitrile, allowed to stand still at −80° C. for 10 minute, thawed again and centrifuged at (10,000×g, 10 min, 4° C.) and the supernatant was collected. Furthermore, filtration treatment by a 0.45 μm filter and centrifugation (10,000×g, 4 min, 4° C.) were performed and subsequently filtration treatment by a 0.22 μm filter and centrifugation (10,000×g, 4 min, 4° C.) were performed. The supernatant was then collected and subjected to HPLC analysis. A standard curve was prepared by using the brain of the same type mouse to which none of the compounds was administered.
(§1) HPLC analysis conditions will be described below.
Column: CAPCELL PAK C18, 4.6 mm I.D.×150 mm (SHISEIDO)
Eluate: 10 mM phosphate buffer/acetonitrile (30-50%)
Dilution solution: 10 mM phosphate
buffer/acetonitrile (30-50%)

[2] = system: Human neuroblastoma SH-SY5Y cells; assay: Oxidative stress-mediated cell death suppressive (AOSCD) activity in differentiated nerve cells, menadione, AlamarBlue; type: cell-based; settings: RA-differentiated SH-SY5Y cells, compound 24 hours before menadione, 4 hours oxidative stress treatment, read-out: ED50 (the source's name)
Description: A test was performed by using the same compounds as in Test Example 1. Human neuroblastoma SH-SY5Y cells (ATCC, CRL2266 strain) were cultured in DMEM medium (manufactured by Wako Pure Chemical Industries Ltd.) containing 10% FBS, 100 μg/mL streptomycin and 100 U/mL penicillin G. SH-SY5Y cells were suspended in a DMEM/10% FBS medium, seeded in a cell density of 0.75×10^4 cells/well in a 96-well microplate and cultured in the presence of 5% CO2 at 37° C. for 24 hours. Thereafter, the medium was exchanged with DMEM/10% FBS (DMEM/FBS/RA) medium containing 10 μM all-trans-retinoic acid (RA). At the fifth day, each compound was added so as to obtain 2, 4, 6, 8, 10, 20, 30, 40, 50, 60, 80 μM (final concentration) and culture was performed. Note that, in this experiment, a sample in which DMSO alone was added was used as a negative control.
After 24 hours, an oxidative stress agent, menadione, was added so as to obtain a final concentration of 0, 30, 40, 60 and 80 μM and culture was continued in the presence of 5% CO2 at 37° C. (oxidative stress treatment) Cells treated with a 0.1% Triton X-100/DMEM/FBS/RA medium in place of menadione was used as a blank in this assay. After an oxidative stress treatment for 4 hours, the medium was replaced with a medium containing 10% AlamarBlue and culture was performed in the presence of 5% CO2 at 37° C. Twelve hours later, fluorescent was measured at an excitation wavelength of 530 nm/detection wavelength of 580 nm by use of CYTOFLUOR (registered trade mark) Multi-Well Plate Reader Series 4000 to quantify oxidative stress-mediated cell death suppressive (AOSCD) activity. In accordance with a conventional method, ED50 (Effective Dose) (μM) was calculated.

[3] = Evaluation of solubility in the 1st fluid (pH1.2) of the Japanese pharmacopeia; type: physicochemical; settings: 1st fluid (pH 1.2) of the Japanese Pharmacopeia, pH 1.2, simulated gastric fluid, thermodynamic from solid, 25° C.
Description: Using the same compounds as in Experimental Example 1, solubility in the 1st fluid (pH1.2) of the Japanese pharmacopeia was measured. The 1st fluid of the Japanese Pharmacopeia was prepared by dissolving sodium chloride in hydrochloric acid (7.0 mL) and water and adjusting the total amount to 1000 mL. The 1st fluid of the Japanese Pharmacopeia (0.6 mL) was poured in a tube and a compound was added until a precipitate was observed. Then, the tube was shaken at 25° C. for 24 hours (200 rotations/minute) to obtain a compound solution. The compound solution was added to a 96-well plate to which a 0.22 μm filter (manufactured by Millipore) was set and centrifugally filtrated (2700 rotations/minute, 10 minutes). Thereafter, the concentration of the compound in the filtrate was obtained from the peak area obtained by HPLC analysis. The solution for a calibration curve was prepared by dissolving a compound in DMSO.
as §1
Column: TSKgel ODS-80Tm, 4.6×150 mm (manufactured by Tohso Corporation)
Column temperature: 40° C.
Mobile phase: 20 mM sodium 1-decanesulfonate, 40 mM phosphoric acid, 0.2% trimethylamine/acetonitrile

[4] = system: ALS-SOD1^H46R transgenic mice; assay: In vivo drug efficacy test: vertical pole test (motor function); settings: 21 weeks of age compared with 17 weeks of age, control significantly reduced
Description: (§2) In this test, ALS-SOD1^H46R transgenic mice carrying and expressing ALS1 pathological SOD1 gene (SOD1^H46R) were used. The mice were housed at 23° C. with a 12 hours light/dark cycle. […] Each compound was dissolved in sterilized water, and subsequently an administration solution was prepared with physiological saline. The dose of each compound was 0.01 mg, 0.1 mg and 1 mg/5 ml/kg per body weight of each individual and the compounds were orally administered once per day until an individual dies (compound-administered group). Mice to which physiological saline (5 ml/kg) alone was administered were used as a control group. As an evaluation method for expression of a neurological sign, a balance beam test (a stainless steel bar of 50 cm in length and 0.9 cm in width) was used.
(§3) Each of the mice was subjected to the test and grade 3 was determined as onset of disease. The motor function of the mice in the compound-administered groups and the control group was evaluated based on a vertical pole test and footprint analysis.
The vertical pole test (stainless steel bar of 50 cm in length and 0.9 cm in width was used) was started when the test mice became 17 weeks of age and carried out once a week. Each mouse was given five trials (noted that a maximum value was 45 cm, and when a mouse reached the vertical ascending distance of 45 cm, the trial was terminated at that point). The maximum value of the 5 trials was defined as motor function value.

[5] = system: ALS-SOD1^H46R transgenic mice; assay: In vivo drug efficacy test: footprint analysis (ambulation); settings: 22 weeks of age compared with 18 weeks of age, control showed abnormal ambulation
Description: as §2, §3
Mice of the administered groups and the control group were subject to footprint analysis at 18 weeks and 22 weeks of age. Blue ink and red ink were applied respectively to the front and hind paws of the test mouse and the mouse was then allowed to walk on paper. From the footprint, irregularity of walking was observed. Data was analyzed by use of GraphPad Prism 5 and SPSS 17.0.

[6] = system: ALS-SOD1^H46R transgenic mice; assay: In vivo drug efficacy test: survival period after the onset of disease; settings: for survival period after the onset of disease: control 33.4±3.2 days; for survival benefit versus control group: 0.01, 0.1 and 1 mg/kg orally once per day from onset
Description: as §2, §3

[7] = 0.1 mg/kg orally once per day from onset
[8] = 0.01 mg/kg orally once per day from onset
[9] = 1 mg/kg orally once per day from onset

Row | Structure (SMILES) | Amount of blood brain barrier permeation ([1]; 0.5 h after administration) | Amount of blood brain barrier permeation ([1]; 1 h after administration) | EC50 [2] | solubility at 24 h [3] | motor function by vertical pole test [4, 7] | ambulation by footprint analysis [5, 7] | survival period after the onset of disease [6, 8] | survival period after the onset of disease [6, 7] | survival period after the onset of disease [6, 9] | survival benefit versus control group [6] | motor function by vertical pole test [4, 8] | ambulation by footprint analysis [5, 8]
1 | Cc1cc(C)c(O[C@H](C)C(=O)Nc2nc(-c3ccccn3)c[nH]2)c(C)c1 [Compound 10, (2R)-2-(mesityloxy)-N-[4-(pyridin-2-yl)-1H-imidazol-2-yl]propanamide] | 256 ng/100 μg | 225 ng/100 μg | 8 µM | 7880 µg/mL (≈ 22.5 mM) | relatively retained | no significant change of ambulation | 43.7 ± 7.5 days | 47.7 ± 6.9 days | 41.8 ± 10.5 days | significant survival benefit |  | 
2 | Cc1cc(C)c(O[C@@H](C)C(=O)Nc2nc(-c3ccccn3)c[nH]2)c(C)c1 [Compound 11, (2S)-2-(mesityloxy)-N-[4-(pyridin-2-yl)-1H-imidazol-2-yl]propanamide] | 478 ng/100 μg | 372 ng/100 μg | 4 µM | 7980 µg/mL (≈ 22.8 mM) |  |  |  |  |  |  |  | 
3 | Cc1cc(C)c(OC(C)(C)C(=O)Nc2nc(-c3ccccn3)c[nH]2)c(C)c1 [Compound 12, 2-(mesityloxy)-2-methyl-N-[4-(pyridin-2-yl)-1H-imidazol-2-yl]propanamide] | 258 ng/100 μg | 133 ng/100 μg | 4 µM | 3760 µg/mL (≈ 10.3 mM) |  |  | 36.2 ± 4.0 days | 38.8 ± 4.3 days | 41.0 ± 7.9 days | significant survival benefit | relatively retained | no significant change of ambulation
4 | Cc1cc(C)c(N(C)CC(=O)Nc2nc(-c3ccccn3)c[nH]2)c(C)c1 [Compound 14, 2-[mesityl(methyl)amino]-N-[4-(pyridin-2-yl)-1H-imidazol-2-yl]acetamide] | 519 ng/100 μg | 370 ng/100 μg | 4 µM | 3070 µg/mL (≈ 8.79 mM) |  |  | 44.5 ± 3.4 days | 42.2 ± 4.5 days | 42.5 ± 2.9 days | significant survival benefit | relatively retained | no significant change of ambulation
5 | Cc1cc(C)c(NCC(=O)Nc2nc(-c3ccccn3)c[nH]2)c(C)c1 [Compound 22, 2-(mesitylamino)-N-(4-pyridin-2-yl-1H-imidazol-2-yl)acetamide] | 108 ng/100 μg | 16 ng/100 μg | 21 µM | 1810 µg/mL (≈ 5.4 mM) |  |  |  |  |  |  |  | 
6 | Cc1cc(C)c(OCC(=O)Nc2nc(-c3ccccn3)c[nH]2)c(C)c1 [Compound (Ie), 2-(mesityloxy)-N-[4-(pyridin-2-yl)-1H-imidazol-2-yl]acetamide, reference compound] | 27 ng/100 μg | 8 ng/100 μg | 6 µM | 610 µg/mL (≈ 1.81 mM) |  |  |  |  |  |  |  | 
7 | Cc1cc(C)c(OCC(=O)Nc2nc(-c3ccccn3)cs2)c(C)c1 [Compound (X), 2-(mesityloxy)-N-(4-pyridin-2-yl-1,3-thiazol-2-yl)acetamide, reference compound] | 62 ng/100 μg | 26 ng/100 μg | 20 µM | 30 µg/mL (≈ 0.0849 mM) |  |  |  |  |  |  |  | 
